Data on one compound can be found in patent US20060035209A1, “Screening method” (priority 2002, published 2006).

What all share (format): in vivo, rat
One test concerns Zucker fatty rats. The experiment in a line: Urinary albumin excretion in Zucker fatty rats (24-hour urine pooling, A/G B Test Wako). The source says:
(§1) Male Zucker fatty rats (ZF rats, 18 weeks of age, Charles River Japan Inc.), which have hyperinsulinemia and spontaneously develop renal disease, were given oral administration of candesartan cilexetil (angiotensin II type 1 receptor antagonist) in suspension in 0.5% methylcellulose 100 cP once daily for 9 consecutive weeks. For a control group and a normal control group, male Zucker lean rats at the same weeks of age (ZL rats, Charles River Japan Inc.) were given oral administration of 0.5% methylcellulose 100 cP (vehicle) once daily for consecutive days. At 8 weeks of administration, 24-hour urine pooling was conducted, and urinary albumin excretion was measured using the A/G B Test Wako (Wako Pure Chemical Industries, Ltd.). At 9 weeks of administration, kidneys were collected and stored at −80° C. After the sample was disrupted, total RNA was extracted. A primer and a fluorescent probe were prepared on the basis of reported (ibidem) mRNA sequences, and various mRNA expression levels were measured by the real-time quantitative RT-PCR method using ABI PRISM7700 (Applied Biosystems).

The test system of the next test is TSC-22 mRNA. As to the kind of experiment: TSC-22 mRNA expression level in kidneys of Zucker fatty rats (real-time quantitative RT-PCR).
Source text: as §1

The subject of another test is TGF-β1 mRNA. The experiment in a line: TGF-β1 mRNA expression level in kidneys of Zucker fatty rats (real-time quantitative RT-PCR).
Source text: as §1

[1] abbreviates: Zucker fatty rats, administration of the drug.

For `CCOc1nc2cccc(C(=O)OC(C)OC(=O)OC3CCCCC3)c2n1Cc1ccc(-c2ccccc2-c2nnn[nH]2)cc1` (stereo not drawn) [Candesartan cilexetil, candesartan cilexetil], the “increase in urinary albumin excretion (in words)” value in the test on Zucker fatty rats (setting [1]) is recorded as “suppressed”. Moreover, the Urinary albumin excretion with Zucker fatty rats (male ZF rats, oral once daily, at 8 weeks of administration, n = 8-9, Mean (ZF vehicle 401.5, ZL vehicle 48.5)) is 61.7 mg/day. The “increase in TSC-22 mRNA expression level in the kidneys (in words)” value with TSC-22 mRNA (setting [1]) was “suppressed”. The “mRNA expression level of TSC-22 in the kidneys (relative value with the expression level in the kidneys of Zucker lean rats as 1)” value in the test with TSC-22 mRNA (male ZF rats, oral once daily, kidneys collected at 9 weeks of administration, n = 8-9, Mean (ZF vehicle 2.4)) came out at 1.6. In addition, the “increase in TGF-β1 mRNA expression level in the kidneys (in words)” value in the test on TGF-β1 mRNA (setting [1]) was “suppressed”. In addition, in the test on TGF-β1 mRNA (male ZF rats, oral once daily, kidneys collected at 9 weeks of administration, n = 8-9, Mean (ZF vehicle 2.1)), the “mRNA expression level of TGF-β1 in the kidneys (relative value with the expression level in the kidneys of Zucker lean rats as 1)” value came out at 1.2.
